Data reported in patent US20250263404A1, “AMINOPYRIDINES AS ACTIVATORS OF PI3 KINASE” (UCL Business Ltd, priority 2021, published 2025).

Assays:
PI3Kα = PI3Kα (Homo sapiens, UniProt P42336); experiment: ADP-Glo in vitro lipid kinase assay, PI3Kα; format: biochemical; design: Full-length p110α was expressed in a complex with full-length p85α (for biochemistry and HDX-MS); 6xHis followed by TEV protease site (N); made in house; host or cells: Spodoptera frugiperda Sf9 (baculovirus co-infection; plasmids OP831 and OP809); conditions: for EC50: in vitro PI3Kα activation; for Max. activity relative to pY ctrl: relative to pY control
Chain of PI3Kα (P42336 whole entry, the tested form may be a part): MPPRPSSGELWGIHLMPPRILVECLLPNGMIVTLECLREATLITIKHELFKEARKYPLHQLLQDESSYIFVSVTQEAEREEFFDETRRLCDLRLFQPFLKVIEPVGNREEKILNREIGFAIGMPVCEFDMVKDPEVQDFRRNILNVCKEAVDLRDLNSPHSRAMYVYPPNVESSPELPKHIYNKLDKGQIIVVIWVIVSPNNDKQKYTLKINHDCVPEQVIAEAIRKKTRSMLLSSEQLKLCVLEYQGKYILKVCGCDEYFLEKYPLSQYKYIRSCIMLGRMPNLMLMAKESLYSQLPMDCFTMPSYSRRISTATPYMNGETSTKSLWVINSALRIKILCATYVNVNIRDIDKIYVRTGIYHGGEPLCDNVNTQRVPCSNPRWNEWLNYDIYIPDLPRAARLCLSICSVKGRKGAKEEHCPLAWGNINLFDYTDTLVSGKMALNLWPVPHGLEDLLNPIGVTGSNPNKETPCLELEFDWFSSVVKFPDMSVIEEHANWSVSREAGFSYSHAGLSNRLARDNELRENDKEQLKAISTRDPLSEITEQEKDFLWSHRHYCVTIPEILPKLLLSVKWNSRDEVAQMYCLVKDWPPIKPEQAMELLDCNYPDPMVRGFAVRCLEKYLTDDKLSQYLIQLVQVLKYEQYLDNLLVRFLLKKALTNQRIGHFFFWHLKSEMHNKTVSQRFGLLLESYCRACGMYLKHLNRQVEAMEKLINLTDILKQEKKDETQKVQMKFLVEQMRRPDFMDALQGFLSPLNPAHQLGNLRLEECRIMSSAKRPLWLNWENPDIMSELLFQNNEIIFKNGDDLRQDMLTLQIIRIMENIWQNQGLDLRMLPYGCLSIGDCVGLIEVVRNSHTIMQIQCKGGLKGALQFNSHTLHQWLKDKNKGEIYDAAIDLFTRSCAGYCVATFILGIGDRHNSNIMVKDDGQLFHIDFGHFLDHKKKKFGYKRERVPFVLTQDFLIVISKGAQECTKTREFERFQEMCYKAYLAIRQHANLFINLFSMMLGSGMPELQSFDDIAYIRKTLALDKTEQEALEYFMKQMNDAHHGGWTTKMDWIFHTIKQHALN
Chain of PI3Kα (P27986 whole entry partner, the tested form may be a part): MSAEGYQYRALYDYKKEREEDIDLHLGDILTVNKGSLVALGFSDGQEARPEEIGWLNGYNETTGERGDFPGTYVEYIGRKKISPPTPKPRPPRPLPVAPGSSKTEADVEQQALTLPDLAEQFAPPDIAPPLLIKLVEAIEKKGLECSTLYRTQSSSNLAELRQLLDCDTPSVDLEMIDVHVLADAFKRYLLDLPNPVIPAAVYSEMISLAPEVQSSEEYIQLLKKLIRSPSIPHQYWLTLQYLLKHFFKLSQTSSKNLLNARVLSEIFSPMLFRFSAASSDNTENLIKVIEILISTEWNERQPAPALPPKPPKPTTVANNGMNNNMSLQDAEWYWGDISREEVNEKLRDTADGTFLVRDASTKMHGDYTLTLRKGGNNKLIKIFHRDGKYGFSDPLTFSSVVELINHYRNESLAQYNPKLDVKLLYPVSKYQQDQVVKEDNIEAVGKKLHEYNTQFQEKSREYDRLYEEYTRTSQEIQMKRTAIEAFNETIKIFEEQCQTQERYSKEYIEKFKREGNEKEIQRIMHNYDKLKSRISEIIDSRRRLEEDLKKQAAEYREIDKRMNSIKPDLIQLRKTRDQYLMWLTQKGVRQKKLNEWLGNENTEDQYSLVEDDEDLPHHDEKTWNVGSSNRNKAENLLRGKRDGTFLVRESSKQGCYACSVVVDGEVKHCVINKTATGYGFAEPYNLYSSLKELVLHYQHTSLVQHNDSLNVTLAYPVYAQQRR
Description: The effect of 1938 on the in vitro lipid kinase activity of p85α in complex with p110α, p110β or p110δ (further referred to as PI3Kα, PI3Kβ and PI3Kδ) was tested. As a positive control, a bis-phosphorylated phosphopeptide (a PDGF-receptor-derived peptide phosphorylated on Tyr-740 and Tyr-751, hereafter referred to as pY peptide) was used to mimic engagement of the p85α SH2 domains with tyrosine-phosphorylated peptides in membrane-bound receptors and adaptor proteins, known to activate the PI3Kα complex.
Kinase reactions were performed with ADP-Glo kinase assay kit (Promega Corporation). The enzyme, substrate and compounds were diluted in reaction buffer (20 mM HEPES, 50 mM NaCl, 50 mM KCl, 3 mM MgCl2, 1 mM EGTA, 1 mM TCEP, pH 7.4). Final concentrations of PI3Kα and PI3Kδ used were 25 nM and 50 nM for PI3Kβ. Liposomes (5% brain PI(4,5)P2, 20% brain phosphatidylserine, 45% brain phosphatidylethanolamine, 15% brain phosphatidylcholine, 10% cholesterol, 5% sphingomyelin (Avanti Polar Lipids)) were used at a final concentration of 1 mg/ml.
For compound profiling, the reaction mixture contained 2 μl PI3K enzyme, 2 μl compound and/or pY and 2 μl of liposome substrate mixed with ATP. ATP was used at a final concentration of 500 μM for PI3Kα and PI3Kβ and at 200 μM for PI3Kδ, unless otherwise stated. The final DMSO concentration in the assay was 1%. The experiments were performed at room temperature for 3 h using 384 white-polystyrene plates (Corning #3824) before addition of 6 μl of ADP-Glo R1 to terminate the reaction. The plate was incubated for 45 min, followed by addition of 12 μl of ADP-Glo R2 and incubated further for 60 min in the dark. Luminescence was read using a Sense (Hidex) plate reader. […] All analyses were performed using GraphPad Prism 7.
For characterisation of the effects of 1938 on in vitro PI3K enzymology, all reactions were performed at room temperature with 384 white-polystyrene plates (Corning #3574). The final DMSO concentration in the assay was between 0.5%-1.8%. The reaction mixture contained 2 μl PI3K enzyme, 2 μl compound and/or pY and 2 μl of liposome substrate mixed with ATP. ATP was used at a final concentration of 200 μM, unless otherwise stated. The enzyme and compounds were pre-incubated for 10 min prior to addition of substrate. The reaction was allowed to proceed for 45 min at room temperature, before addition of 6 μl of ADP-Glo R1 to terminate the reaction. The plate was incubated for 60 min, followed by addition of 12 μl of ADP-Glo R2 and incubated further for 60 min in the dark. For enzyme kinetic calculations, data was expressed as velocity (pmol of ADP generated/sec). ADP-ATP standard curves were performed according to the manufacturer's instructions, and all analyses were performed using GraphPad Prism 8.

[1] = Solubility (comparison in words); format: physicochemical

Structure (SMILES) | activity compared with 1938 (in words) (PI3Kα) | EC50 (PI3Kα) [µM] | Max. activity relative to 1938 (PI3Kα) [%] | Max. activity relative to pY ctrl (PI3Kα) [%] | solubility compared with 1938 (in words) [1] | reduction in activity (PI3Kα; structure-activity comparison with 1938)
COc1cc(N2CCN(C)CC2)ccc1Nc1cc(Nc2cccc3c2N(C(C)=O)CC3)ccn1 [Example 1889] | activities comparable with 1938 | 56 ± 24 | 102 | 408 ± 110 | – | –
CCN1CCN(c2ccc(Nc3cc(Nc4ccncn4)ccn3)cc2)CC1 [Example 2106] | – | – | 4 | 14 ± 13 | – | –
CCN1CCN(c2ccc(Nc3nccc(Nc4cccc5c4N(C(C)=O)CC5)n3)cc2)CC1 [Example 2152] | – | – | 4 | 16 ± 8 | – | –

Results, then the compound that gave them:

activity compared with 1938 (in words) (PI3Kα) | EC50 (PI3Kα) [µM] | Max. activity relative to 1938 (PI3Kα) [%] | Max. activity relative to pY ctrl (PI3Kα) [%] | solubility compared with 1938 (in words) [1] | reduction in activity (PI3Kα; structure-activity comparison with 1938) | Structure (SMILES)
activities comparable with 1938 | 36 ± 5 | 80 | 318 ± 68 | – | – | COc1cc(Nc2cc(Nc3cccc4c3N(C(C)=O)CC4)ccn2)cc(OC)c1OC [Example 1887]
– | – | 9 | 36 ± 8 | less soluble than 1938 | more than 90% | CC(=O)N1CCc2cccc(Nc3ccnc(Nc4ccccc4)c3)c21 [Example 2016]
